Test results from patent US20070037862A1, “Thiazolidinones, their production and use as pharmaceutical agents” (priority 2003, published 2007).
Like-named read-outs stand apart in the source and are kept apart here.

Columns and labels:
[1] = biological target: T1, Recombinant human Plk-1 (6×His) (Homo sapiens, UniProt P53350); assay: PLK enzyme assay; format: biochemical
T1 construct: 6xHis; made in house; host or cells: baculovirus-infected Hi5 insect cells
Description: Recombinant human Plk-1 (6×His) was purified from baculovirus-infected insect cells (Hi5).
10 ng of (produced in a recombinant manner and purified) PLK enzyme is incubated for 90 minutes at room temperature with biotinylated casein and 33P-γ-ATP as a substrate in a volume of 15 μl in 384-well Greiner small-volume microtiter plates (final concentrations in the buffer: 660 ng/ml of PLK; 0.7 μmol of casein, 0.5 μmol of ATP incl. 400 nCi/ml of 33P-γ-ATP; 10 mmol of MgCl2, 1 mmol of MnCl2; 0.01% NP40; 1 mmol of DTT, protease inhibitors; 0.1 mmol of Na2VO3 in 50 mmol of HEPES, pH 7.5). To complete the reaction, 5 μl of stop solution (500 μmol of ATP; 500 mmol of EDTA; 1% Triton X100; 100 mg/ml of streptavidin-coated SPA beads in PBS) is added. After the microtiter plate is sealed by film, the beads are sedimented by centrifuging (10 minutes, 1500 rpm). The incorporation of 33P-γ-ATP in casein is intended as a measurement of enzyme activity by β-counting.
Test substances are used in various concentrations (0 μmol, as well as in the range of 0.01-30 ∥mol). The final concentration of the solvent dimethyl sulfoxide is 1.5% in all batches.

[2] = test system: human MaTu breast tumor cells; assay: Proliferation assay (crystal violet); format: cell-based; settings: 96 h, 4 days, read-out: Inhibition of Tumor Cell Proliferation (MaTu) IC50
Description: Cultivated human MaTu breast tumor cells were flattened out at a density of 5000 cells/measuring point in a 96-well multititer plate in 200 μl of the corresponding growth medium. After 24 hours, the cells of one plate (zero-point plate) were colored with crystal violet (see below), while the medium of the other plates was replaced by fresh culture medium (200 μl), to which the test substances were added in various concentrations (0 μm, as well as in the range of 0.01-30 μm; the final concentration of the solvent dimethyl sulfoxide was 0.5%). The cells were incubated for 4 days in the presence of test substances. The cell proliferation was determined by coloring the cells with crystal violet: the cells were fixed by adding 20 μl/measuring point of an 11% glutaric aldehyde solution for 15 minutes at room temperature. After three washing cycles of the fixed cells with water, the plates were dried at room temperature. The cells were colored by adding 100 μl/measuring point of a 0.1% crystal violet solution (pH was set at 3 by adding acetic acid). After three washing cycles of the colored cells with water, the plates were dried at room temperature. The dye was dissolved by adding 100 μl/measuring point of a 10% acetic acid solution. The extinction was determined by photometry at a wavelength of 595 nm. The change of cell growth, in percent, was calculated by standardization of the measured values to the extinction values of the zero-point plate (=0%) and the extinction of the untreated (0 μm) cells (=100%).

[3] = Table 2, Amides, read-out: Inhibition of Plk-1 IC50

T1 sequence (P53350 whole entry): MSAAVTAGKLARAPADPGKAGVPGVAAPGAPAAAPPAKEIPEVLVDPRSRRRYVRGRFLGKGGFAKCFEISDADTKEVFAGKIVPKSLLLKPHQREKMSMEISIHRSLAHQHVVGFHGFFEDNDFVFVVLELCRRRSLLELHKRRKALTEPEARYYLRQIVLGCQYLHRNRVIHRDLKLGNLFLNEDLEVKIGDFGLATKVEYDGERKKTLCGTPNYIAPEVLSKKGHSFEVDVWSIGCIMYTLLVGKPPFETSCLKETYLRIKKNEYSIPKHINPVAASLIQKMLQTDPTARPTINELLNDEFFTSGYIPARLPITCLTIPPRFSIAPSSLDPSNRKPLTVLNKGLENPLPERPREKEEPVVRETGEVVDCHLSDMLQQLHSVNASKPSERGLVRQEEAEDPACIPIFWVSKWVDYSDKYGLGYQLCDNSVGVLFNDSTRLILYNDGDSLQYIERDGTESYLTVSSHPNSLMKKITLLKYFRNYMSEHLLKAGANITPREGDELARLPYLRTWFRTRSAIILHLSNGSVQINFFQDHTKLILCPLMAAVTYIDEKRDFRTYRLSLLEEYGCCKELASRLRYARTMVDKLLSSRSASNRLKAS

SMILES	IC50 ([1]; Table 1, read-out: PLK IC50)	IC50 ([2]; Table 2, Amides)	other results
CCOC(=O)C(C#N)=c1sc(=CNc2ccccc2F)c(=O)n1CC (mixture of isomers) [Example 36]	160 nM		
C=CCOC(=O)C(C#N)=c1sc(=CNc2ccc(NC(=O)NCCN3CCCC3)cc2)c(=O)n1CC (mixture of isomers) [Example 47]			IC50 ([1]; Table 3, Esters, read-out: Inhibition of Plk-1 IC50): 23 nM; IC50 ([2]; Table 3, Esters): 1100 nM
CCOC(=O)C(C#N)=c1sc(=CNc2ccc(OC)c(NC(=S)N3CCOCC3)c2)c(=O)n1CC (mixture of isomers) [Example 56]	810 nM		
CCOC(=O)C(C#N)=c1sc(=CNc2ccc(C(C)=O)cc2)c(=O)n1CC (mixture of isomers) [Example 132]			IC50 ([2]; Table 3, Esters): 3100 nM
C=CCOC(=O)C(C#N)=c1sc(=CNc2ccc(C(C)=O)cc2)c(=O)n1CC (mixture of isomers) [Example 133]			IC50 ([2]; Table 3, Esters): 1400 nM
CCOC(=O)C(C#N)=c1sc(=CNc2ccc(NC(=O)COC)cc2)c(=O)n1CC [Example 19]	500 nM		
CCOC(=O)C(C#N)=c1sc(=CNc2ccc(NC(=O)NCCN3CCCC3)cc2)c(=O)n1CC [Example 74]			IC50 ([2]; Table 3, Esters): 3300 nM
CCNC(=O)/C(C#N)=c1\sc(=CNc2cccc(C(=O)NCCCN3CCCC3)c2)c(=O)n1CC [Example 169]		3550 nM	
CCn1c(=O)c(=CNc2cccc(NC(=O)C(C)(C)C)c2)s/c1=C(/C#N)C(=O)NC1(CO)CCCC1 [Example 192]		9700 nM	
CCn1c(=O)c(=CNc2ccccc2)s/c1=C(/C#N)C(=O)N1CCCC1 [Example 210]		4500 nM	
CCn1c(=O)c(=CNc2ccccc2)s/c1=C(/C#N)C(=O)NCc1ccco1 [Example 223]	3100 nM		
CCCCN(C)C(=O)/C(C#N)=c1\sc(=CNc2ccccc2)c(=O)n1CC [Example 234]	950 nM		
C#CCNC(=O)/C(C#N)=c1\sc(=CNc2ccc(OCCN(C)C)cc2)c(=O)n1CC [Example 307]			IC50 [1, 3]: 71 nM
CCn1c(=O)c(=CNc2ccc(OCCN(C)C)cc2)s/c1=C(/C#N)C(=O)NCC(F)F [Example 310]			IC50 [1, 3]: 74 nM
CCN(CC)CCNC(=O)c1c[nH]c2ccc(NC=c3s/c(=C(/C#N)C(=O)NCC(F)(F)F)n(CC)c3=O)cc12 [Example 330]		1200 nM	
CCn1c(=O)c(=CNc2ccc(CCN3CCCC3)cc2)s/c1=C(/C#N)C(=O)NCC(F)(F)F [Example 527]		2800 nM	
